Where a name gives a salt, the structure may show the parent alone. Read-outs that look alike come from different tables or passages of the source.
Legend:
[1] = test system: fibrin-induced microglia activation; experiment: Image-based assay of fibrin-induced microglia activation (HTS and dose response); assay type: cell-based, rat; conditions: for inhibition at 10 µM: Rattus norvegicus, Microglia, read-out: Fibrin % inhibition
[2] = test system: LPS-induced microglia activation; experiment: Image-based assay of LPS-induced microglia activation (HTS and dose response); assay type: cell-based, rat; conditions: for inhibition at 10 µM: Rattus norvegicus, Microglia, read-out: LPS % inhibition
[3] = test system: fibrin- and LPS-induced microglia activation; experiment: cells; assay type: cell-based, rat
primary rat microglia [4] = experiment: Cell toxicity (dead cells, size <150 μm2) in LPS assay
primary rat microglia [5] = test system: primary rat microglia
primary rat microglia [6] = experiment: Cell toxicity (dead cells, size <150 μm2) in coated fibrin (cFib) assay; conditions: primary microglia HTS;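 further: share of dead cells sized under 150 µm2 at 10 µM in fibrin-stimulated microglia HTS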
[7] = primary microglia HTS, fibrin stimulation, activation = cell size >800 μm2
[8] = primary microglia HTS, LPS stimulation, activation = cell size >800 μm2
[9] = quadrant by fibrin and LPS inhibition in HTS of 1907 compounds
[10] = primary microglia HTS, LPS stimulation, toxicity = cell size <150 μm2
[11] = primary microglia HTS, fibrin stimulation, cell size >800 μm2 as marker of activation
[12] = classification by fibrin and LPS inhibition in HTS
[13] = fibrin stimulation, cell size <150 μm2 as marker of toxicity
[14] = primary microglia HTS, fibrin stimulation, compounds at 10 μM
[15] = primary microglia HTS, LPS stimulation, compounds at 10 μM
[16] = quadrant by fibrin and LPS inhibition, HTS at 10 μM
[17] = fibrin assay, dead cells (size <150 μm2)
[18] = classification by fibrin and LPS inhibition, HTS at 10 μM
[19] = fibrin assay, dead cells (size <150 μm2), compounds at 10 μM

CN(C)[C@@H]1C(=O)C(C(N)=O)=C(O)[C@@]2(O)C(=O)C3=C(O)c4c(O)ccc(Cl)c4[C@@](C)(O)[C@H]3C[C@@H]12
Fibrin % inhibition ([1]; primary HTS, 10 μM, fibrin-stimulated primary microglia): 27%
LPS % inhibition ([2]; primary HTS, 10 μM, LPS-stimulated primary microglia): 23%
Quadrant (FIG. 5b) ([3]; primary HTS, 10 μM): Q4
LPS % cell toxicity (primary rat microglia [4]; primary HTS, 10 μM, LPS assay, dead cells size <150 μm2): 0%

Br.COc1ccc2c3c1O[C@H]1C[C@@H](O)C=C[C@@]31CCN(C)C2 [Galanthamine Hydrobromide, Galantamine]
Fibrin % inhibition [1, 7]: 10%
LPS % inhibition [2, 8]: 9%
Quadrant (FIG. 5b) [3, 9]: Q4
LPS % cell toxicity (primary rat microglia [4]; [10]): 0%

CC(=O)[C@@]1(O)CC[C@H]2[C@@H]3CCC4=CC(=O)CC[C@]4(C)[C@H]3CC[C@@]21C [Hydroxyprogesterone]
Fibrin % inhibition [1, 7]: 9%
LPS % inhibition [2, 8]: 33%
Quadrant (FIG. 5b) [3, 9]: Q4
LPS % cell toxicity (primary rat microglia [4]; [10]): 1%

C[C@@H]1O[C@@H](OC[C@H]2O[C@@H](Oc3c(-c4ccc(O)c(O)c4)oc4cc(O)cc(O)c4c3=O)[C@H](O)[C@@H](O)[C@@H]2O)[C@H](O)[C@H](O)[C@H]1O [Rutin]
inhibition at 10 µM [1, 11]: 1%
inhibition at 10 µM ([2]; 48 h): 18%
Quadrant (FIG. 5b) [3, 12]: Q4
LPS % cell toxicity (primary rat microglia [5]; rat): 0%
Fibrin % cell toxicity (primary rat microglia [6]; [13]): 1%

C[C@@](Cc1ccc(O)c(O)c1)(NN)C(=O)O [S-(−)-carbidopa, Carbidopa]
Fibrin % inhibition [1, 11]: −91%
LPS % inhibition [2]: 16%
Quadrant (FIG. 5b) [3, 12]: Q4
LPS % cell toxicity (primary rat microglia [5]): 0%
Fibrin % cell toxicity (primary rat microglia [6]; [13]): 0%

OCc1ccccc1O [Salicyl Alcohol]
inhibition at 10 µM [1, 11]: -5%
inhibition at 10 µM ([2]; 48 h): 19%
Quadrant (FIG. 5b) [3, 12]: Q4
LPS % cell toxicity (primary rat microglia [5]; rat): 0%
Fibrin % cell toxicity (primary rat microglia [6]; [13]): 1%

O=C(Nc1ccccc1)c1ccccc1O [Salicylanilide]
inhibition at 10 µM [1, 11]: 1%
inhibition at 10 µM ([2]; 48 h): 13%
Quadrant (FIG. 5b) [3, 12]: Q4
LPS % cell toxicity (primary rat microglia [5]; rat): 0%
Fibrin % cell toxicity (primary rat microglia [6]; [13]): 1%

O=C(Oc1ccccc1C(=O)O)c1ccccc1O [Salsalate]
inhibition at 10 µM [1, 11]: -22%
inhibition at 10 µM ([2]; 48 h): 14%
Quadrant (FIG. 5b) [3, 12]: Q4
LPS % cell toxicity (primary rat microglia [5]; rat): 1%
Fibrin % cell toxicity (primary rat microglia [6]; [13]): 1%

O=C(O)c1cn(-c2ccc(F)cc2)c2cc(N3CCNCC3)c(F)cc2c1=O [Sarafloxacin]
inhibition at 10 µM [1, 11]: 2%
inhibition at 10 µM ([2]; 48 h): 4%
Quadrant (FIG. 5b) [3, 12]: Q4
LPS % cell toxicity (primary rat microglia [5]; rat): 0%
Fibrin % cell toxicity (primary rat microglia [6]; [13]): 0%

N#C[C@@H]1C[C@@H]2C[C@@H]2N1C(=O)[C@@H](N)C12CC3CC(CC(O)(C3)C1)C2 [Saxagliptin]
inhibition at 10 µM [1, 11]: 34%
inhibition at 10 µM ([2]; 48 h): 38%
Quadrant (FIG. 5b) [3, 12]: Q4
LPS % cell toxicity (primary rat microglia [5]; rat): 0%
Fibrin % cell toxicity (primary rat microglia [6]; [13]): 1%

Cc1ncc([N+](=O)[O-])n1CC(C)O (centres unmarked) [Secnidazole]
inhibition at 10 µM [1, 11]: -24%
inhibition at 10 µM ([2]; 48 h): 22%
Quadrant (FIG. 5b) [3, 12]: Q4
LPS % cell toxicity (primary rat microglia [5]; rat): 2%
Fibrin % cell toxicity (primary rat microglia [6]; [13]): 1%

C[Se]CC[C@H](N)C(=O)O [Selenomethionine]
inhibition at 10 µM [1, 11]: -5%
inhibition at 10 µM ([2]; 48 h): 10%
Quadrant (FIG. 5b) [3, 12]: Q4
LPS % cell toxicity (primary rat microglia [5]; rat): 0%
Fibrin % cell toxicity (primary rat microglia [6]; [13]): 1%

O=C(O)c1cc(O)c2c(c1)[C@H]([C@H]1c3cc(C(=O)O)cc(O)c3C(=O)c3c(O[C@@H]4O[C@H](CO)[C@@H](O)[C@H](O)[C@H]4O)cccc31)c1cccc(O[C@@H]3O[C@H](CO)[C@@H](O)[C@H](O)[C@H]3O)c1C2=O [Sennoside A]
Fibrin % inhibition [1, 11]: −10%
LPS % inhibition [2]: 14%
Quadrant (FIG. 5b) [3, 12]: Q4
LPS % cell toxicity (primary rat microglia [5]): 0%
Fibrin % cell toxicity (primary rat microglia [6]; [13]): 1%

CC1=C(C)C(=O)C(C(CCCCCC(=O)O)c2ccccc2)=C(C)C1=O (centres unmarked) [Seratrodast]
inhibition at 10 µM [1, 11]: 20%
inhibition at 10 µM ([2]; 48 h): 14%
Quadrant (FIG. 5b) [3, 12]: Q4
LPS % cell toxicity (primary rat microglia [5]; rat): 0%
Fibrin % cell toxicity (primary rat microglia [6]; [13]): 1%

Clc1ccc(C(Cn2ccnc2)OCc2csc3c(Cl)cccc23)c(Cl)c1 (centres unmarked) [Sertaconazole]
inhibition at 10 µM [1, 11]: -25%
inhibition at 10 µM ([2]; 48 h): 11%
Quadrant (FIG. 5b) [3, 12]: Q4
LPS % cell toxicity (primary rat microglia [5]; rat): 0%
Fibrin % cell toxicity (primary rat microglia [6]; [13]): 1%

FCOC(C(F)(F)F)C(F)(F)F [Sevoflurane]
inhibition at 10 µM [1, 11]: -1%
inhibition at 10 µM ([2]; 48 h): 17%
Quadrant (FIG. 5b) [3, 12]: Q4
LPS % cell toxicity (primary rat microglia [5]; rat): 1%
Fibrin % cell toxicity (primary rat microglia [6]; [13]): 1%

CN[C@@H]1[C@@H](O)[C@@H](O[C@@H]2[C@@H](O)[C@H](O[C@H]3OC(CN)=CC[C@H]3N)[C@@H](N)C[C@H]2N)OC[C@]1(C)O [Sisomicin Sulfate]
inhibition at 10 µM [1, 11]: -41%
inhibition at 10 µM ([2]; 48 h): 10%
Quadrant (FIG. 5b) [3, 12]: Q4
LPS % cell toxicity (primary rat microglia [5]; rat): 0%
Fibrin % cell toxicity (primary rat microglia [6]; [13]): 0%

N[C@@H](CC(=O)N1CCn2c(nnc2C(F)(F)F)C1)Cc1cc(F)c(F)cc1F [Sitagliptin]
inhibition at 10 µM [1, 11]: -16%
inhibition at 10 µM ([2]; 48 h): 4%
Quadrant (FIG. 5b) [3, 12]: Q4
LPS % cell toxicity (primary rat microglia [5]; rat): 0%
Fibrin % cell toxicity (primary rat microglia [6]; [13]): 0%

O=C(O)CCCO [Sodium Oxybate]
inhibition at 10 µM [1, 11]: -5%
inhibition at 10 µM ([2]; 48 h): 34%
Quadrant (FIG. 5b) [3, 12]: Q4
LPS % cell toxicity (primary rat microglia [5]; rat): 0%
Fibrin % cell toxicity (primary rat microglia [6]; [13]): 1%

CCCCCCCCCCCCCCOS(=O)(=O)[O-].[Na+] [Sodium Tetradecyl Sulfate]
inhibition at 10 µM [1, 11]: -5%
inhibition at 10 µM ([2]; 48 h): 13%
Quadrant (FIG. 5b) [3, 12]: Q4
LPS % cell toxicity (primary rat microglia [5]; rat): 0%
Fibrin % cell toxicity (primary rat microglia [6]; [13]): 1%

CC(=O)N[C@@H](CC(=O)N[C@@H](CCC(=O)O)C(=O)O)C(=O)O [Spaglumic Acid]
inhibition at 10 µM [1, 11]: -15%
inhibition at 10 µM ([2]; 48 h): 15%
Quadrant (FIG. 5b) [3, 12]: Q4
LPS % cell toxicity (primary rat microglia [5]; rat): 0%
Fibrin % cell toxicity (primary rat microglia [6]; [13]): 1%

CN[C@@H]1[C@H](O)[C@H](NC)[C@H]2O[C@@]3(O)C(=O)C[C@@H](C)O[C@H]3O[C@@H]2[C@H]1O [Spectinomycin]
inhibition at 10 µM [1, 11]: 14%
inhibition at 10 µM ([2]; 48 h): 19%
Quadrant (FIG. 5b) [3, 12]: Q4
LPS % cell toxicity (primary rat microglia [5]; rat): 0%
Fibrin % cell toxicity (primary rat microglia [6]; [13]): 0%

CCCCCCCCNC(C)C(O)c1ccc(SC(C)C)cc1 (centres unmarked) [Suloctidil]
inhibition at 10 µM [1, 14]: 112%
inhibition at 10 µM [2, 15]: 3%
Quadrant (FIG. 5b) [3, 16]: Q3
LPS % cell toxicity (primary rat microglia [5]; rat): 0%
Fibrin % cell toxicity (primary rat microglia [6]; [17]): 90%

C=C(NC(=O)C(=C)NC(=O)c1csc(C2=N[C@@H]3c4csc(n4)[C@H]4NC(=O)c5csc(n5)[C@H]([C@](C)(O)[C@@H](C)O)NC(=O)[C@H]5CSC(=N5)/C(=C/C)NC(=O)[C@H]([C@@H](C)O)NC(=O)c5csc(n5)[C@]3(CC2)NC(=O)[C@H](C)NC(=O)C(=C)NC(=O)[C@H](C)NC(=O)[C@H]([C@@H](C)CC)N[C@@H]2C=Cc3c([C@H](C)O)cc(nc3[C@H]2O)C(=O)O[C@@H]4C)n1)C(N)=O [Thiostrepton]
inhibition at 10 µM [1, 14]: 109%
inhibition at 10 µM [2, 15]: 65%
Quadrant (FIG. 5b) [3, 16]: Q2
LPS % cell toxicity (primary rat microglia [5]; rat): 1%
Fibrin % cell toxicity (primary rat microglia [6]; [17]): 64%

CC1(C)O[C@@H]2C[C@H]3[C@@H]4CCC5=CC(=O)C=C[C@]5(C)[C@@]4(F)[C@@H](O)C[C@]3(C)[C@]2(C(=O)CO)O1 [Triamcinolone Acetonide]
inhibition at 10 µM [1, 14]: 111%
inhibition at 10 µM [2, 15]: 104%
Quadrant (FIG. 5b) [3, 16]: Q2
LPS % cell toxicity (primary rat microglia [5]; rat): 4%
Fibrin % cell toxicity (primary rat microglia [6]; [17]): 4%

Acetophenazine Maleate
Fibrin % inhibition [1, 14]: 34%
LPS % inhibition [2, 15]: 15%
Quadrant (FIG. 5b) [3, 16]: Q4
LPS % cell toxicity (primary rat microglia [5]): 0%
Fibrin % cell toxicity (primary rat microglia [6]; [17]): 1%

Apramycin Sulfate
Fibrin % inhibition [1, 14]: 11%
LPS % inhibition [2, 15]: 25%
Quadrant (FIG. 5b) [3, 16]: Q4
LPS % cell toxicity (primary rat microglia [5]): 1%
Fibrin % cell toxicity (primary rat microglia [6]; [17]): 1%

Arsenic Trioxide
Fibrin % inhibition [1, 14]: 14%
LPS % inhibition [2, 15]: 14%
Quadrant (FIG. 5b) [3, 16]: Q4
LPS % cell toxicity (primary rat microglia [5]): 0%
Fibrin % cell toxicity (primary rat microglia [6]; [17]): 1%

Cyanocobalamin
Fibrin % inhibition [1, 14]: −1%
LPS % inhibition [2, 15]: 11%
Quadrant (FIG. 5b) [3, 18]: Q4
LPS % cell toxicity (primary rat microglia [5]): 0%
Fibrin % cell toxicity (primary rat microglia [6]; [19]): 1%

Eprinomectin
Fibrin % inhibition [1, 14]: −3%
LPS % inhibition [2, 15]: 8%
Quadrant (FIG. 5b) [3, 18]: Q4
LPS % cell toxicity (primary rat microglia [5]): 1%
Fibrin % cell toxicity (primary rat microglia [6]; [19]): 1%

Pizotyline Malate
Fibrin % inhibition [1, 11]: 8%
LPS % inhibition [2]: 37%
Quadrant (FIG. 5b) [3, 12]: Q4
LPS % cell toxicity (primary rat microglia [5]): 1%
Fibrin % cell toxicity (primary rat microglia [6]; [13]): 1%

Reference: patent US20210330611A1, “THERAPY FOR NEUROLOGICAL DISEASES/DISORDERS” (priority 2020, published 2021)
